The assay has as its system katGFSAA6 Mtb (INH-resistant, frameshift at amino acid 6 in katG). Format: cell-based, Mycobacterium tuberculosis.

Take `O=C(O)[C@@H]1CSc2c(C3CC3)c(Cc3cccc4ccccc34)cc(=O)n21` [Example 1, (3R)-7-Cyclopropyl-6-[(1-naphthyl)methyl]-4-oxo-1-thia-3a-aza-3-indancarboxylic acid]: the doubling time amounted to 48 h.

On to `NNC(=O)c1ccncc1` [INH, isonicotinylhydrazide, reference compound], for which the doubling time stood at 55 h.
